Assay results taken from patent publication US20130196937A1, “AGE PRODUCTION INHIBITOR” (ORYZA OIL & FAT CHEMICAL CO., LTD., priority 2010, published 2013).
Marks after values point to notes of the source that are not given here.

Each molecule was assayed on AGE production (assay: Test 1: AGE production inhibition (D-glucose + bovine serum albumin, fluorescence)). Details: not given.
Format: biochemical
Protocol: Put the sample solution ([…]) of the concentration of cherry-blossom extract (Example 1) and cherry-leaf extract (Example 2), as shown in the chart, below, into a phosphate buffer solution (pH: […]) containing D-glucose (10%) and into bovine serum albumin (fraction 5.1%) and leave it out at a temperature of 60 degrees centigrade for two days. Dilute the reaction solution with distilled water until the intensity of fluorescent light reaches about 500, thus determining its intensity (measurement wavelength: […]). Also, the extract is to be diluted with distilled water, and the substance, after being dissolved in DMSO (dimethyl sulphoxide), is to be diluted with a phosphate buffer solution until DMSO concentration is of 1%. Each value in Chart 1 indicates an average value with standard error of the three examples. Asterisks (*, **) mean a significant difference (i.e. *: p<0.05; **: p<0.01) between the processed samples and the unprocessed samples as determined by Dunnett's Multiple Comparison Test.

SMILES	AGE inhibitory activity in words, related compound with less hydroxyl compared with Example 3	IC50 of AGE production inhibition [µg/mL]
O=C(/C=C/c1ccc(O)cc1)O[C@@H]1OC(CO)[C@@H](O)C(O)C1O (stereo partly drawn) [1-O-(E)-Coumaroyl-β-D-glucopyranoside]	reduced	>300
O=C(O)CC(=O)OCC1O[C@@H](Oc2c(-c3ccc(O)c(O)c3)oc3cc(O)cc(O)c3c2=O)C(O)C(O)[C@@H]1O (stereo partly drawn) [Quercetin 3-O-(6″-malony)-β-D-glucopyranoside]		36
O=c1c(O[C@@H]2O[C@H](CO)[C@@H](O)[C@H](O)[C@H]2O)c(-c2ccc(O)cc2)oc2cc(O)cc(O)c12 [Kaempferol 3-O-β-D-glucopyranoside]		102
O=c1c(O[C@@H]2O[C@H](CO)[C@@H](O)[C@H](O)[C@H]2O)c(-c2ccc(O)c(O)c2)oc2cc(O)cc(O)c12 [Quercetin 3-O-β-D-glucopyranoside]		30

Same assay, conditions: 1 μg/mL

SMILES	Inhibition Ratio (%) of AGE production
O=C(/C=C/c1ccc(O)cc1)O[C@@H]1OC(CO)[C@@H](O)C(O)C1O (stereo partly drawn) [1-O-(E)-Coumaroyl-β-D-glucopyranoside]	−3.2 ± 0.1%
O=C(O)CC(=O)OCC1O[C@@H](Oc2c(-c3ccc(O)c(O)c3)oc3cc(O)cc(O)c3c2=O)C(O)C(O)[C@@H]1O (stereo partly drawn) [Quercetin 3-O-(6″-malony)-β-D-glucopyranoside]	−10.4 ± 0.9%
O=c1c(O[C@@H]2O[C@H](CO)[C@@H](O)[C@H](O)[C@H]2O)c(-c2ccc(O)cc2)oc2cc(O)cc(O)c12 [Kaempferol 3-O-β-D-glucopyranoside]	−8.4 ± 0.1** %
O=c1c(O[C@@H]2O[C@H](CO)[C@@H](O)[C@H](O)[C@H]2O)c(-c2ccc(O)c(O)c2)oc2cc(O)cc(O)c12 [Quercetin 3-O-β-D-glucopyranoside]	8.5 ± 0.1** %

Same assay, conditions: 3 μg/mL

SMILES	Inhibition Ratio (%) of AGE production
O=C(/C=C/c1ccc(O)cc1)O[C@@H]1OC(CO)[C@@H](O)C(O)C1O (stereo partly drawn) [1-O-(E)-Coumaroyl-β-D-glucopyranoside]	−8.2 ± 0.1** %
O=C(O)CC(=O)OCC1O[C@@H](Oc2c(-c3ccc(O)c(O)c3)oc3cc(O)cc(O)c3c2=O)C(O)C(O)[C@@H]1O (stereo partly drawn) [Quercetin 3-O-(6″-malony)-β-D-glucopyranoside]	1.9 ± 0.1%
O=c1c(O[C@@H]2O[C@H](CO)[C@@H](O)[C@H](O)[C@H]2O)c(-c2ccc(O)cc2)oc2cc(O)cc(O)c12 [Kaempferol 3-O-β-D-glucopyranoside]	−9.1 ± 0.2** %
O=c1c(O[C@@H]2O[C@H](CO)[C@@H](O)[C@H](O)[C@H]2O)c(-c2ccc(O)c(O)c2)oc2cc(O)cc(O)c12 [Quercetin 3-O-β-D-glucopyranoside]	6.5 ± 0.1* %

Same assay, conditions: 10 μg/mL

SMILES	Inhibition Ratio (%) of AGE production
O=C(/C=C/c1ccc(O)cc1)O[C@@H]1OC(CO)[C@@H](O)C(O)C1O (stereo partly drawn) [1-O-(E)-Coumaroyl-β-D-glucopyranoside]	−8.6 ± 0.1** %
O=C(O)CC(=O)OCC1O[C@@H](Oc2c(-c3ccc(O)c(O)c3)oc3cc(O)cc(O)c3c2=O)C(O)C(O)[C@@H]1O (stereo partly drawn) [Quercetin 3-O-(6″-malony)-β-D-glucopyranoside]	20.4 ± 0.3** %
O=c1c(O[C@@H]2O[C@H](CO)[C@@H](O)[C@H](O)[C@H]2O)c(-c2ccc(O)cc2)oc2cc(O)cc(O)c12 [Kaempferol 3-O-β-D-glucopyranoside]	−2.0 ± 0.1%
O=c1c(O[C@@H]2O[C@H](CO)[C@@H](O)[C@H](O)[C@H]2O)c(-c2ccc(O)c(O)c2)oc2cc(O)cc(O)c12 [Quercetin 3-O-β-D-glucopyranoside]	27.6 ± 0.5** %

Same assay, conditions: 30 μg/mL

SMILES	Inhibition Ratio (%) of AGE production
O=C(/C=C/c1ccc(O)cc1)O[C@@H]1OC(CO)[C@@H](O)C(O)C1O (stereo partly drawn) [1-O-(E)-Coumaroyl-β-D-glucopyranoside]	−8.9 ± 0.1** %
O=C(O)CC(=O)OCC1O[C@@H](Oc2c(-c3ccc(O)c(O)c3)oc3cc(O)cc(O)c3c2=O)C(O)C(O)[C@@H]1O (stereo partly drawn) [Quercetin 3-O-(6″-malony)-β-D-glucopyranoside]	43.7 ± 0.7** %
O=c1c(O[C@@H]2O[C@H](CO)[C@@H](O)[C@H](O)[C@H]2O)c(-c2ccc(O)cc2)oc2cc(O)cc(O)c12 [Kaempferol 3-O-β-D-glucopyranoside]	19.4 ± 0.1** %
O=c1c(O[C@@H]2O[C@H](CO)[C@@H](O)[C@H](O)[C@H]2O)c(-c2ccc(O)c(O)c2)oc2cc(O)cc(O)c12 [Quercetin 3-O-β-D-glucopyranoside]	49.8 ± 0.7** %

Same assay, conditions: 100 μg/mL

SMILES	Inhibition Ratio (%) of AGE production
O=C(/C=C/c1ccc(O)cc1)O[C@@H]1OC(CO)[C@@H](O)C(O)C1O (stereo partly drawn) [1-O-(E)-Coumaroyl-β-D-glucopyranoside]	−3.7 ± 0.1** %
O=C(O)CC(=O)OCC1O[C@@H](Oc2c(-c3ccc(O)c(O)c3)oc3cc(O)cc(O)c3c2=O)C(O)C(O)[C@@H]1O (stereo partly drawn) [Quercetin 3-O-(6″-malony)-β-D-glucopyranoside]	74.6 ± 0.7** %
O=c1c(O[C@@H]2O[C@H](CO)[C@@H](O)[C@H](O)[C@H]2O)c(-c2ccc(O)cc2)oc2cc(O)cc(O)c12 [Kaempferol 3-O-β-D-glucopyranoside]	45.0 ± 0.5** %
O=c1c(O[C@@H]2O[C@H](CO)[C@@H](O)[C@H](O)[C@H]2O)c(-c2ccc(O)c(O)c2)oc2cc(O)cc(O)c12 [Quercetin 3-O-β-D-glucopyranoside]	74.2 ± 1.1** %

Same assay, conditions: 300 μg/mL

SMILES	Inhibition Ratio (%) of AGE production
O=C(/C=C/c1ccc(O)cc1)O[C@@H]1OC(CO)[C@@H](O)C(O)C1O (stereo partly drawn) [1-O-(E)-Coumaroyl-β-D-glucopyranoside]	11.6 ± 0.1** %
O=C(O)CC(=O)OCC1O[C@@H](Oc2c(-c3ccc(O)c(O)c3)oc3cc(O)cc(O)c3c2=O)C(O)C(O)[C@@H]1O (stereo partly drawn) [Quercetin 3-O-(6″-malony)-β-D-glucopyranoside]	103.9 ± 3.6** %
O=c1c(O[C@@H]2O[C@H](CO)[C@@H](O)[C@H](O)[C@H]2O)c(-c2ccc(O)cc2)oc2cc(O)cc(O)c12 [Kaempferol 3-O-β-D-glucopyranoside]	80.3 ± 0.7** %
O=c1c(O[C@@H]2O[C@H](CO)[C@@H](O)[C@H](O)[C@H]2O)c(-c2ccc(O)c(O)c2)oc2cc(O)cc(O)c12 [Quercetin 3-O-β-D-glucopyranoside]	100.8 ± 0.6** %

These molecules were tested on normal diploid fibroblast (PDL22-32 cells) (assay: Test 2-2: fibroblast apoptosis caused by CML-collagen (Caspase Assay), extracts and substances). Details: not given.
Format: cell-based, human
Protocol: 50 mg of 1 mM HCL was added to 25 mL of bovine skin-derived collagen and dissolved for two hours incubation at the temperature of 37 degrees centigrade, and was shaken as needed. Then, PBS (pH7.4 25 mL) was added to sodium cyanoborohydride (1.42 g) and to glyoxylic acid (0.9 g) and mixed so as to react at the temperature of 37 degrees centigrade for 24 hours. The reaction solution was then put into a dialysis cell of 10,000 molecular mass for a dialysis-with-water test to be conducted for one day and for a dialysis-with-PBS to be conducted for six days. CML-collagen (21 mg) was obtained by freeze-drying the dialysate.
The fibroblast (7×10^4 cells) was suspended in the D-MEM medium containing FCS (0.5%), penicillin (100 units/mL) and streptomycin ([…]) to be seeded within 96-well plates ([…]). After 24 hours of culture, the dissolved CML-collagen solution (2 mg·mL) and the sample solution ([…]) were added to the medium and cultured for 24 hours. Collagen, instead of CML-collagen, was added to Normal group.
The rate of cell survival was measured by MIT Assay. The result is shown in Chart 2. At the same time, a microscopic test was done, of which the result of formazan formation of fibroblast (×100) is shown in FIG. 2. Apoptosis was identified by measuring active caspase-3/7 by the fluorescence method, of which the result is shown in Chart 3, below. Each value of Charts 2 and 3 is indicated by the average value with standard error of the six examples. Asterisks (*, **) mean a significant difference (i.e. *: p<0.05; **: p<0.01) between the unprocessed samples and Dunnett's multiple comparison test, and f represents p<0.05 by Fisher's PLSD Test.
Here, in Test 2-2, respecting the cherry-blossom extract (Example 1), and the cherry-leaf extract (Example 2) and the seven substances contained in the cherry-blossom extract (Example 1): 1-O-(E)-Caffeoyl-β-D-glucopyranoside, 1-O-(E)-Coumaroyl-β-D-Glucopyranosideand, 1-O-(E)-Cinnamoyl-β-D-glucopyranoside, Kaempferol 3-O-3-D-glucopyranoside, Quercetin 3-O-β-D-glucopyranoside, Kaempferol 3-O-(6″-malony)-β-D-glucopyranoside and Quercetin 3-O-(6″-malony)-β-D-glucopyranoside (Examples 3 to 9), the activity against fibroblast apoptosis, caused by CML-collagen, was identified in the same way as in Test 2-1.
Also, in Test 2-2, PDL22-32 cells were used as the normal diploid fibroblast. As a target for comparison, aminoguanidine hydrochloride which is a medicine for the glycation inhibitor was examined in the same way. Each value of Chart 4 indicates an average value with standard error of the five examples. Asterisks (*, **) mean a significant difference (i.e. *: p<0.05; **: p<0.01) between processed samples and unprocessed samples with CML-collagen, determined by Dunnett's Multiple Comparison Test.

SMILES	inhibitory activity against apoptosis caused by CML-collagen, result in words
O=C(O)CC(=O)OCC1O[C@@H](Oc2c(-c3ccc(O)c(O)c3)oc3cc(O)cc(O)c3c2=O)C(O)C(O)[C@@H]1O (stereo partly drawn) [Quercetin 3-O-(6″-malony)-β-D-glucopyranoside]	strong inhibitory activity
O=c1c(O[C@@H]2O[C@H](CO)[C@@H](O)[C@H](O)[C@H]2O)c(-c2ccc(O)cc2)oc2cc(O)cc(O)c12 [Kaempferol 3-O-β-D-glucopyranoside]	especially strong inhibitory activity
O=c1c(O[C@@H]2O[C@H](CO)[C@@H](O)[C@H](O)[C@H]2O)c(-c2ccc(O)c(O)c2)oc2cc(O)cc(O)c12 [Quercetin 3-O-β-D-glucopyranoside]	strongest inhibitory activity

Same assay, conditions: 1 μg/mL

SMILES	Inhibition Ratio (%) of fibroblast apoptosis (Caspase Assay)
O=C(/C=C/c1ccc(O)cc1)O[C@@H]1OC(CO)[C@@H](O)C(O)C1O (stereo partly drawn) [1-O-(E)-Coumaroyl-β-D-glucopyranoside]	17.2 ± 0.5%
O=C(O)CC(=O)OCC1O[C@@H](Oc2c(-c3ccc(O)c(O)c3)oc3cc(O)cc(O)c3c2=O)C(O)C(O)[C@@H]1O (stereo partly drawn) [Quercetin 3-O-(6″-malony)-β-D-glucopyranoside]	21.8 ± 0.7%
O=c1c(O[C@@H]2O[C@H](CO)[C@@H](O)[C@H](O)[C@H]2O)c(-c2ccc(O)cc2)oc2cc(O)cc(O)c12 [Kaempferol 3-O-β-D-glucopyranoside]	−0.7 ± 0.1%
O=c1c(O[C@@H]2O[C@H](CO)[C@@H](O)[C@H](O)[C@H]2O)c(-c2ccc(O)c(O)c2)oc2cc(O)cc(O)c12 [Quercetin 3-O-β-D-glucopyranoside]	44.2 ± 1.5* %

Same assay, conditions: 3 μg/mL

SMILES	Inhibition Ratio (%) of fibroblast apoptosis (Caspase Assay)
O=C(/C=C/c1ccc(O)cc1)O[C@@H]1OC(CO)[C@@H](O)C(O)C1O (stereo partly drawn) [1-O-(E)-Coumaroyl-β-D-glucopyranoside]	7.1 ± 0.2%
O=C(O)CC(=O)OCC1O[C@@H](Oc2c(-c3ccc(O)c(O)c3)oc3cc(O)cc(O)c3c2=O)C(O)C(O)[C@@H]1O (stereo partly drawn) [Quercetin 3-O-(6″-malony)-β-D-glucopyranoside]	36.6 ± 1.4%
O=c1c(O[C@@H]2O[C@H](CO)[C@@H](O)[C@H](O)[C@H]2O)c(-c2ccc(O)cc2)oc2cc(O)cc(O)c12 [Kaempferol 3-O-β-D-glucopyranoside]	27.9 ± 1.1%
O=c1c(O[C@@H]2O[C@H](CO)[C@@H](O)[C@H](O)[C@H]2O)c(-c2ccc(O)c(O)c2)oc2cc(O)cc(O)c12 [Quercetin 3-O-β-D-glucopyranoside]	39.0 ± 1.1* %

Same assay, conditions: 10 μg/mL

SMILES	Inhibition Ratio (%) of fibroblast apoptosis (Caspase Assay)
O=C(/C=C/c1ccc(O)cc1)O[C@@H]1OC(CO)[C@@H](O)C(O)C1O (stereo partly drawn) [1-O-(E)-Coumaroyl-β-D-glucopyranoside]	51.1 ± 1.9%
O=C(O)CC(=O)OCC1O[C@@H](Oc2c(-c3ccc(O)c(O)c3)oc3cc(O)cc(O)c3c2=O)C(O)C(O)[C@@H]1O (stereo partly drawn) [Quercetin 3-O-(6″-malony)-β-D-glucopyranoside]	98.4 ± 4.4* %
O=c1c(O[C@@H]2O[C@H](CO)[C@@H](O)[C@H](O)[C@H]2O)c(-c2ccc(O)cc2)oc2cc(O)cc(O)c12 [Kaempferol 3-O-β-D-glucopyranoside]	100.7 ± 4.2%
O=c1c(O[C@@H]2O[C@H](CO)[C@@H](O)[C@H](O)[C@H]2O)c(-c2ccc(O)c(O)c2)oc2cc(O)cc(O)c12 [Quercetin 3-O-β-D-glucopyranoside]	121.5 ± 5.4** %

Same assay, conditions: listed as Example 6

SMILES	inhibitory activity against apoptosis caused by CML-collagen, result in words
O=c1c(O[C@@H]2O[C@H](CO)[C@@H](O)[C@H](O)[C@H]2O)c(-c2ccc(O)cc2)oc2cc(O)cc(O)c12 [Kaempferol 3-O-β-D-glucopyranoside]	strong inhibitory activity
